Data on six compounds can be found in ChEMBL document CHEMBL4334544, “BRM Targeting Compounds for the Potential Treatment of Cancer” (ACS Med Chem Lett, 2020).

A value given as a limit tells only on which side of the number the result lay.

The target in assay [1] is T1, Protein cereblon/SWI/SNF-related matrix-associated actin-dependent regulator of chromatin subfamily A member 2 (Homo sapiens, UniProt P51531+Q96SW2). Put plainly: Protac activity at E3 ubiquitin ligase/BRM in human SW1573 cells assessed as E3 ubiquitin ligase-mediated BRM degradation incubated for 18 to 20 hrs by Western blot analysis. The class given is cell-based.

Assay [2] addresses T1, Protein cereblon/SWI/SNF-related matrix-associated actin-dependent regulator of chromatin subfamily A member 2. Put plainly: Protac activity at E3 ubiquitin ligase/BRM in human SW1573 cells assessed as E3 ubiquitin ligase-mediated BRM degradation at 0.3 to 10 uM incubated for 18 to 20 hrs by Western blot analysis relative to control. The class given is cell-based.
Assay [3] has as its target T2, von Hippel-Lindau disease tumor suppressor/SWI/SNF-related matrix-associated actin-dependent regulator of chromatin subfamily A member 4 (Homo sapiens, UniProt P51532+P40337). The assay is described as follows: Protac activity at E3 ubiquitin ligase/BRG1 (unknown origin) assessed as E3 ubiquitin ligase mediated BRG1 degradation.
Target sequence in this assay (P51532 whole entry): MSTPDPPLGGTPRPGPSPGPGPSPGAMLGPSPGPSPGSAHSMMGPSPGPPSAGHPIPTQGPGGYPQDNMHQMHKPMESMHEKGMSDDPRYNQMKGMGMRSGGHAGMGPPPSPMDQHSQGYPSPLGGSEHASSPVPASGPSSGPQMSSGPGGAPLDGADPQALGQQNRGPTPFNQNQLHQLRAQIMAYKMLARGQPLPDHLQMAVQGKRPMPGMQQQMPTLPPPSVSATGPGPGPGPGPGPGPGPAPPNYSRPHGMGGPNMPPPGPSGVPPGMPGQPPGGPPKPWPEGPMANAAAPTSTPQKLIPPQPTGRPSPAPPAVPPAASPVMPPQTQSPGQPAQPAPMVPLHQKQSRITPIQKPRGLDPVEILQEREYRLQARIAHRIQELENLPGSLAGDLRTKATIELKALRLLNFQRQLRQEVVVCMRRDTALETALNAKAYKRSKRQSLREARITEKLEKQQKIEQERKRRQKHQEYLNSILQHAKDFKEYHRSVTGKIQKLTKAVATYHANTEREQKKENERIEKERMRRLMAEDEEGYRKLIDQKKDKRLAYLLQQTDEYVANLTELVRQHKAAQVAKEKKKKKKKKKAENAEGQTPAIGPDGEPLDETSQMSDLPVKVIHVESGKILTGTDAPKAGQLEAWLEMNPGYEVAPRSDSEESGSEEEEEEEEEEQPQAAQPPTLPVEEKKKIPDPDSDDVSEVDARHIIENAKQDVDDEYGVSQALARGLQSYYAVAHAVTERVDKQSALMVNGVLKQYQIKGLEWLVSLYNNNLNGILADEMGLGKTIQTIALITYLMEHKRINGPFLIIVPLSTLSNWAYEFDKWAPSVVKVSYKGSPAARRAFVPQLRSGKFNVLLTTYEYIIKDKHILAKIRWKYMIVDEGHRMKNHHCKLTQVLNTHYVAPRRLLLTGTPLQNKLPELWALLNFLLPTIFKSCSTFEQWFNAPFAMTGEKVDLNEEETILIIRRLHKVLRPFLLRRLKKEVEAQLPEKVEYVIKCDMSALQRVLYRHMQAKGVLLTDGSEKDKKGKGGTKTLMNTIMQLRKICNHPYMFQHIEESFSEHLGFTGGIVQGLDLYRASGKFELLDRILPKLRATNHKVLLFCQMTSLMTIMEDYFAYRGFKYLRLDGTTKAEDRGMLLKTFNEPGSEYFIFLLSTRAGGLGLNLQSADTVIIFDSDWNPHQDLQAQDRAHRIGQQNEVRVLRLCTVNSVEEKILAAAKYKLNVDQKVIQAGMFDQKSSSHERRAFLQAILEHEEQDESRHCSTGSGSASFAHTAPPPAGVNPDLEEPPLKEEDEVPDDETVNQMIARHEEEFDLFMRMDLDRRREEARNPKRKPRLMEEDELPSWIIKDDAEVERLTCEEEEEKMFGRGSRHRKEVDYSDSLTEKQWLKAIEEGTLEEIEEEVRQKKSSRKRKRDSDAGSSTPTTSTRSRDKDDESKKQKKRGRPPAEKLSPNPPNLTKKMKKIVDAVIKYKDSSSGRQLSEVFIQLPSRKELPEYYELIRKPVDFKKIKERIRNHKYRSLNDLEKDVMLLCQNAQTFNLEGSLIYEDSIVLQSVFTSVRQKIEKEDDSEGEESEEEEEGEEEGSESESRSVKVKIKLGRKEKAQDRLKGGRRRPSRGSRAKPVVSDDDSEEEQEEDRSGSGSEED
Target sequence in this assay (P40337 whole entry): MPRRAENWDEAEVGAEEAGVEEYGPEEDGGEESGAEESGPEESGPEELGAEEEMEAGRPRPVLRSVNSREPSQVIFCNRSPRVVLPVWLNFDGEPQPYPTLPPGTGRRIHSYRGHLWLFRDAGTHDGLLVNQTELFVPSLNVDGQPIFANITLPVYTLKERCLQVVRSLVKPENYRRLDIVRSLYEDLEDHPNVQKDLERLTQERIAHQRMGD
Assay [4] has as its target T2, von Hippel-Lindau disease tumor suppressor/SWI/SNF-related matrix-associated actin-dependent regulator of chromatin subfamily A member 4. Put plainly: Protac activity at E3 ubiquitin ligase/BRG1 (unknown origin) assessed as E3 ubiquitin ligase mediated BRG1 degradation at 0.3 to 10 uM relative to control.
Target sequence in this assay (P40337 whole entry, looked up): as the sequence (P40337 whole entry) above
Target sequence in this assay (P51532 whole entry, looked up): as the sequence (P51532 whole entry) above

T1 sequence (P51531 whole entry): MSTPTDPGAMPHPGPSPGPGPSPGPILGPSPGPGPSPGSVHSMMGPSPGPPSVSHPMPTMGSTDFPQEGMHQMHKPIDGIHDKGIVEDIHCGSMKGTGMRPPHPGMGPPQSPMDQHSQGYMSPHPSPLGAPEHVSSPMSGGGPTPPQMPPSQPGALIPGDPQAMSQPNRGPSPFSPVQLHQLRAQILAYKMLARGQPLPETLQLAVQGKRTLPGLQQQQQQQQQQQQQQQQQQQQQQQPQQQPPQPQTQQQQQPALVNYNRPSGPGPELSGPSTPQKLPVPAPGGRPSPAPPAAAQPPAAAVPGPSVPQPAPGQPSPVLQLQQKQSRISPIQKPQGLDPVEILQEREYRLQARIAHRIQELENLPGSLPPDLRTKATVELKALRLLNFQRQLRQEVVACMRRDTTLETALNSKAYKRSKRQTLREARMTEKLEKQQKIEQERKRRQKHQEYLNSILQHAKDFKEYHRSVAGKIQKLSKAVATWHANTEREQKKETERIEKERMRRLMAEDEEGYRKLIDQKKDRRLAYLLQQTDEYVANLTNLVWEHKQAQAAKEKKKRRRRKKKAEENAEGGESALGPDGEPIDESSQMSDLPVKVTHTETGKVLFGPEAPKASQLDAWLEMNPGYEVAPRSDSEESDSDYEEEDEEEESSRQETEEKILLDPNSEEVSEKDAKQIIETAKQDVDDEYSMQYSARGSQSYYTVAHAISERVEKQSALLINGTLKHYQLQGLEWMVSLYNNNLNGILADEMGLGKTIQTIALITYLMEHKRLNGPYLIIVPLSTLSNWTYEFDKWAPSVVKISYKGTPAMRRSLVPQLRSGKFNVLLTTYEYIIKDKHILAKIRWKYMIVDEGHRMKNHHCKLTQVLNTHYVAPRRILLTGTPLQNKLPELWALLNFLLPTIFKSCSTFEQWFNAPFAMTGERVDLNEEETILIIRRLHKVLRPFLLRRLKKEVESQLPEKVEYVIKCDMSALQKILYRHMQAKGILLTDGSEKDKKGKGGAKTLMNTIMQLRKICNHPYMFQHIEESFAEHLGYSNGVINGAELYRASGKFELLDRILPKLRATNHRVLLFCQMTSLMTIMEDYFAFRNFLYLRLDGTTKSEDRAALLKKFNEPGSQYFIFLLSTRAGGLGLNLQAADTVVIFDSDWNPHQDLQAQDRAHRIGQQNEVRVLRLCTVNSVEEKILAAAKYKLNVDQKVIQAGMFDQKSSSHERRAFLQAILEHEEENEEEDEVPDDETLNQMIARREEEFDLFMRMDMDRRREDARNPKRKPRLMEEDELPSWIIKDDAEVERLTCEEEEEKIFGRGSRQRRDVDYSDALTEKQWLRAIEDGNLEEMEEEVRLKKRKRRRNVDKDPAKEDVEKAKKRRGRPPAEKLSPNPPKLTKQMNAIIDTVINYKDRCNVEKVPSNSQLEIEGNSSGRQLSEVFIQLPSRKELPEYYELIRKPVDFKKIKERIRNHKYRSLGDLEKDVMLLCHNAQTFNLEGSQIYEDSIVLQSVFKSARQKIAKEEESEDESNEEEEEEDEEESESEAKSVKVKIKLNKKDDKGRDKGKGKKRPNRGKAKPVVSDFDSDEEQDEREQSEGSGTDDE
T1 sequence (Q96SW2 whole entry): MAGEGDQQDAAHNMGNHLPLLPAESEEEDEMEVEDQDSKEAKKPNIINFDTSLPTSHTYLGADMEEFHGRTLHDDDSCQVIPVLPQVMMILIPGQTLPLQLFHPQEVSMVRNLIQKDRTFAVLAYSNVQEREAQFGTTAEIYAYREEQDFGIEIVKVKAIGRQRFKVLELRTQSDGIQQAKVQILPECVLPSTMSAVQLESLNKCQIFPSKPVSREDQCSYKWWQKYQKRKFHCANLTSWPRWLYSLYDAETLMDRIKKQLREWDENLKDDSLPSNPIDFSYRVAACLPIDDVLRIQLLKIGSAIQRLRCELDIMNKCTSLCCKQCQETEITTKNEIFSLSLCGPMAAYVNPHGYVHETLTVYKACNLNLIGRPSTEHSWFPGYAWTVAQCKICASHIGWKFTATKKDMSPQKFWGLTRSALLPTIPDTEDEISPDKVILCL

With `Cc1ncsc1-c1ccc([C@H](C)NC(=O)[C@@H]2C[C@@H](O)CN2C(=O)[C@@H](c2cc(N3CCC(O[C@H]4C[C@H](Oc5cc(N6C7CCC6CN(c6cc(-c8ccccc8O)nnc6N)C7)ccn5)C4)CC3)no2)C(C)C)cc1`, the DC50 in assay [1] and in assay [3] was less than 2.5 nM each time. Also, the %max in assay [2] and in assay [4] was greater than 75% in each case.
Take `Cc1ncsc1-c1ccc([C@H](C)NC(=O)[C@@H]2C[C@@H](O)CN2C(=O)[C@@H](c2cc(C#CCN3CCC(O[C@H]4C[C@H](Oc5cc(N6C7CCC6CN(c6cc(-c8ccccc8O)nnc6N)C7)ccn5)C4)CC3)no2)C(C)C)cc1`: the results for the DC50 in assay [1] and in assay [3] were less than 2.5 nM and 2.5 to 10 nM, respectively. Besides, the %max in assay [2] and in assay [4] was greater than 75% in each case.
As for `Cc1ncsc1-c1ccc([C@H](C)NC(=O)[C@@H]2C[C@@H](O)CN2C(=O)[C@@H](c2cc(OC3CN(CCN4CCC(O[C@H]5C[C@H](Oc6cc(N7C8CCC7CN(c7cc(-c9ccccc9O)nnc7N)C8)ccn6)C5)CC4)C3)no2)C(C)C)cc1`, the half-maximal degradation concentration (DC50) in assay [1] was less than 2.5 nM; in assay [3], 2.5 to 10 nM. Besides, the %max in assay [2] and in assay [4] was greater than 75% each time.
Turning to `Cc1ncsc1-c1ccc([C@H](C)NC(=O)[C@@H]2C[C@@H](O)CN2C(=O)[C@@H](c2cc(OCCOCCOc3cc(N4C5CCC4CN(c4cc(-c6ccccc6O)nnc4N)C5)ccn3)no2)C(C)C)cc1`, the DC50 in assay [1] and in assay [3] was less than 2.5 nM in each case. Further, the %max in assay [2] and in assay [4] was greater than 75% in each case.
Turning to `Cc1ncsc1-c1ccc([C@H](C)NC(=O)[C@@H]2C[C@@H](O)CN2C(=O)[C@@H](c2cc(OCCCCN3CCN(CCCCOc4cc(N5C6CCC5CN(c5cc(-c7ccccc7O)nnc5N)C6)ccn4)CC3)no2)C(C)C)cc1`, the half-maximal degradation concentration (DC50) in assay [1] and in assay [3] was less than 2.5 nM each time. Further, the %max in assay [2] and in assay [4] was greater than 75% in each case.
Regarding `Cc1ncsc1-c1ccc([C@H](C)NC(=O)[C@@H]2C[C@@H](O)CN2C(=O)[C@@H](c2cc(OCCN3CCC(OC4CN(c5cc(N6C7CCC6CN(c6cc(-c8ccccc8O)nnc6N)C7)ccn5)C4)CC3)no2)C(C)C)cc1`, the DC50 in assay [1] was less than 2.5 nM; in assay [3] it was 2.5 to 10 nM. For the same compound, the %max in assay [2] and in assay [4] was greater than 75% each time.
